In PubChem BioAssay AID1963443 (Molecular Pharmacology Branch, DTP, NCI, 2024):
pIC50: −log10 of the molar value. Where “and” joins values, the source holds several entries; their conditions need not be identical. Equal values may be shown once.

System: MDA-MB-231 complex spheroids, growth inhibition
Experiment: Anticancer human tumor MDA-MB-231 cell line growth inhibition [Asc];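 further: spheroids exposed to compounds for 7 days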
Conditions: for viability, T/C: stronger effect = lower value
Experimental: Multicellular complex tumor spheroid response to apoptosis pathway targeting inhibitors Alrizomadlin, Pelcitoclax, and Dasminapant in combination with a variety of drugs and investigational agents in selected tumor cell lines
The MDM2 inhibitor alrizomadlin, the Bcl-2/Bcl-xL inhibitor pelcitoclax, and the IAPs inhibitor dasminapant were evaluated both individually and in combination with standard of care and investigational anticancer small molecules within a complex spheroid model of solid tumors. . Complex spheroids include a stromal component modeled by human endothelial cells (HUVEC) and fibroblasts modeled by human mesenchymal stem cells (MSCs). The concentration ranges selected for each drug and investigational agent were based upon clinically achievable concentrations if the clinical Cmax of the agent was known.
Compounds. The drugs and investigational agents: alrizomadlin (APG-115; NSC831270), pelcitoclax (APG-1252; NSC835773), dasminapant (APG-1387;NSC834197), TAK-243 (NSC785004), copanlisib (NSC809693), olaparib (NSC753686), talazoparib (NSC767125), cobimetinib (NSC 768068), eltanexor (KPT-8602, NSC 794443), abemaciclib (NSC 768073), sotorasib (NSC818433), adagrasib (NSC 831453), MRTX-1133 (NSC 836407), Iadademestat (ORY1001, NSC 806812), and RMC-4630 (NSC839698), were obtained from the NCI Developmental Therapeutics Program Chemical Repository. The FDA-approved anticancer drug set is available from the Developmental Therapeutics Program at https://dtp.cancer.gov/organization/dscb/obtaining/available plates.htm. […] The stock solutions were prepared in dimethyl sulfoxide (DMSO, Sigma-Aldrich, St. Louis, MO, cat. D2650) at 800-fold the tested concentration and stored at -70 degrees C prior to their use. All drugs and investigational agents were tested over a range starting from a high concentration at or near the clinical Cmax and decreasing in half-log increments. If the clinical Cmax for an agent had not been determined, the highest concentration tested was 10 microM.
The patient-derived cancer (PDC) cell lines include five colon adenocarcinomas: 186277-243-T-J2-PDC, 616215-338-R-J1-PDC, 439559-082-T-J2-PDC, 463943-066-T-J2-PDC, and 519858-162-T-J1-PDC; three pancreatic carcinomas: 323965-272-R-J2-PDC, 521955-158-R6-J3-PDC, and 521955-158-R2-J5-PDC; two uterine sarcomas: 327498-152-R-J2-PDC and 993429-296-R-J1-PDC; two rhabdomyosarcomas: 755483-174-R-J1-PDC and 772245-204-R-J1-PDC; two soft tissue sarcomas: 126254-015-R-J1-PDC and 494315-158-R-J1-PDC; two malignant fibrous histiocytomas: 317291-083-R-J1-PDC and 596521-263-R-J1-PDC; two breast carcinomas: 171881-019-R-J1-PDC and 885512-296-R-J2-PDC; and one ovarian carcinoma: 6556581-035-R-J-PDC were obtained from the NCI PDMR, (https://pdmr.cancer.gov). The established cell lines HSSY-2 synovial sarcoma (RRID:CVCL 8719), SYO-1 synovial sarcoma (RRID:CVCL_7146), MPNST malignant peripheral neural sheath tumor were obtained from the Sloan Kettering Institute. The following established cell lines were purchased from the American Type Culture Collection (ATCC, Manassas, VA), Sor the received from the NCI repository:, PANC-1 pancreatic carcinoma (CRL-1469, RRID:CVCL_0480), OVCAR-5 ovarian carcinoma (RRID:CVCL_1628), OVCAR-8 ovarian carcinoma (RRID:CVCL_1629), , MCF-7 breast carcinoma (CRL-12584, RRID:CVCL_0031), MDA-MB-231 breast carcinoma (CRL-12532, RRID:CVCL_0062), NCI-H1876 small cell lung carcinoma (CRL-5902, RRID:CVCL_1503), NCI-H510A small cell lung carcinoma (HTB-184, RRID:CVCL_1565), NCI-H1417 (CRL-5869, RRID:CVCL_1469), and NCI-H196 small cell lung carcinoma (CRL-5823, RRID:CVCL_1509). Dr. Peter Houghton (Greehey Children's Cancer Research Institute, University of Texas Health Science Center, San Antonio, TX) provided Rh-18 rhabdomyosarcoma (RRID:CVCL_1659). Pooled donor human umbilical vein endothelial cells (HUVEC, Lonza, cat. CC-2519) and human mesenchymal stem cells (hMSC, Lonza, cat. PT-2501) were purchased from Lonza (Walkersville, MD).
Cell Culture. […]

[1] = curve of first compound, second compound 0.03 µM
[2] = curve of first compound, second compound 0.0949 µM
[3] = curve of first compound, second compound 0.3 µM
[4] = curve of first compound, second compound 0.949 µM
[5] = curve of first compound, second compound 3 µM
[6] = second compound 0.03 µM, first compound 0.0316 µM
[7] = second compound 0.03 µM, first compound 0.1 µM
[8] = second compound 0.03 µM, first compound 0.316 µM
[9] = second compound 0.03 µM, first compound 1 µM
[10] = second compound 0.03 µM, first compound 3.16 µM
[11] = second compound 0.03 µM, first compound 10 µM
[12] = second compound 0.0949 µM, first compound 0.0316 µM
[13] = second compound 0.0949 µM, first compound 0.1 µM
[14] = second compound 0.0949 µM, first compound 0.316 µM
[15] = second compound 0.0949 µM, first compound 1 µM
[16] = second compound 0.0949 µM, first compound 3.16 µM
[17] = second compound 0.0949 µM, first compound 10 µM
[18] = second compound 0.3 µM, first compound 0.0316 µM
[19] = second compound 0.3 µM, first compound 0.1 µM
[20] = second compound 0.3 µM, first compound 0.316 µM
[21] = second compound 0.3 µM, first compound 1 µM
[22] = second compound 0.3 µM, first compound 3.16 µM
[23] = second compound 0.3 µM, first compound 10 µM
[24] = second compound 0.949 µM, first compound 0.0316 µM
[25] = second compound 0.949 µM, first compound 0.1 µM
[26] = second compound 0.949 µM, first compound 0.316 µM
[27] = second compound 0.949 µM, first compound 1 µM
[28] = second compound 0.949 µM, first compound 3.16 µM
[29] = second compound 0.949 µM, first compound 10 µM
[30] = second compound 3 µM, first compound 0.0316 µM
[31] = second compound 3 µM, first compound 0.1 µM
[32] = second compound 3 µM, first compound 0.316 µM
[33] = second compound 3 µM, first compound 1 µM
[34] = second compound 3 µM, first compound 3.16 µM
[35] = second compound 3 µM, first compound 10 µM

Row | Structure (SMILES) | pIC50 [1] | pIC50 [2] | pIC50 [3] | pIC50 [4] | pIC50 [5] | viability, T/C [6] | viability, T/C [7] | viability, T/C [8] | viability, T/C [9] | viability, T/C [10] | viability, T/C [11] | viability, T/C [12] | viability, T/C [13] | viability, T/C [14] | viability, T/C [15] | viability, T/C [16] | viability, T/C [17] | viability, T/C [18] | viability, T/C [19] | viability, T/C [20] | other results
1 | C#Cc1c(F)ccc2cc(O)cc(-c3ncc4c(N5CC6CCC(C5)N6)nc(OCC56CCCN5CC(F)C6)nc4c3F)c12 (stereo unspecified) + CCN1C(C(=O)NC23CCC(C(=O)O)(CC2)CC3)C(c2cccc(Cl)c2F)C2(C(=O)Nc3cc(Cl)ccc32)C12CCCCC2 | < 5.00 | 5.07 | < 5.00 | < 5.00 | 6.05 | 96.8% | 96.5% | 92.8% | 74.9% | 63.8% | 55.1% | 108% | 98.2% | 94.7% | 70.2% | 59.3% | 48.1% | 106% | 107% | 98.8% | viability, T/C [21]: 72.5%; viability, T/C [22]: 59.3%; viability, T/C [23]: 48.5%; viability, T/C [24]: 108%; viability, T/C [25]: 106%; viability, T/C [26]: 103%; viability, T/C [27]: 66.2%; viability, T/C [28]: 61.5%; viability, T/C [29]: 45.8%; viability, T/C [30]: 96.7%; viability, T/C [31]: 90.5%; viability, T/C [32]: 68.8%; viability, T/C [33]: 47.4%; viability, T/C [34]: 43.5%; viability, T/C [35]: 36.4%
2 | O=C(c1cc(Cc2n[nH]c(=O)c3ccccc23)ccc1F)N1CCN(C(=O)C2CC2)CC1 | – | – | – | – | – | – | – | – | – | – | – | – | – | – | – | – | – | – | – | – | viability, T/C (compound 0.0316 µM): 95.2% and 99.3% and 106%; viability, T/C (compound 0.1 µM): 97.2% and 86.9% and 110%; viability, T/C (compound 0.316 µM): 92.7% and 75.9% and 84.1%; viability, T/C (compound 1 µM): 90.8% and 88.9% and 83.6%; viability, T/C (compound 3.16 µM): 87% and 88.3% and 49%; pIC50 (curve of compound): < 5.00 and 5.50
3 | C=C(F)C(=O)N1CCN(c2nc(OCC3CCCN3C)nc3c2CCN(c2cccc4cccc(Cl)c24)C3)CC1CC#N (stereo unspecified) + CCN1C(C(=O)NC23CCC(C(=O)O)(CC2)CC3)C(c2cccc(Cl)c2F)C2(C(=O)Nc3cc(Cl)ccc32)C12CCCCC2 | 5.48 | 5.49 | 5.51 | 5.44 | 5.63 | 102% | 101% | 88.1% | 90.2% | 51.2% | 0.47% | 100% | 108% | 97.9% | 97.1% | 50.7% | 0.33% | 112% | 107% | 110% | viability, T/C [21]: 105%; viability, T/C [22]: 48.9%; viability, T/C [23]: 0.55%; viability, T/C [24]: 112%; viability, T/C [25]: 116%; viability, T/C [26]: 114%; viability, T/C [27]: 107%; viability, T/C [28]: 57.3%; viability, T/C [29]: 1.4%; viability, T/C [30]: 94.3%; viability, T/C [31]: 99.5%; viability, T/C [32]: 97.6%; viability, T/C [33]: 86.9%; viability, T/C [34]: 37.7%; viability, T/C [35]: 0.24%
